Results on 58 compounds are retold here after patent publication US6369069B1 (Aventis Pharma Deutschland GmbH, priority 1998, dated 2002).

The structures appear in SMILES notation.

The assay has as its system Na^+-dependent Cl^−/HCO3^− exchanger (NCBE). In words: Inhibition of the Na+-dependent Cl−/HCO3− exchanger (NCBE) in human endothelial cells (pHi recovery, BCECF fluorescence, FLIPR). In kind it is cell-based. The note with it: 10 μM. In short, it runs like this:
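Fluorescence rise (FLIPR, 2 min, 35 °C) tracked pHi recovery in acid-loaded, BCECF-loaded ECV-304 cells after adding Na+- and HCO3−-containing buffer with 50 μM HOE 642 and graded compound doses. Inhibition was calculated against full-recovery and bicarbonate-free no-recovery controls.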
For the compound `CC(C)(C)OC(=O)C(c1ccccc1)N(Cc1ccc(-c2ccccc2S(=O)(=O)NC#N)cc1)C(=O)CCc1cccs1` (stereo not shown) [Example 287], the “Residual activity % of the NCBE at 10 μM” value is given as 51.1%.
Turning to `N#CNS(=O)(=O)c1ccccc1-c1ccc(CN(Cc2ccc(Cl)cc2Cl)C(=O)CCc2cccs2)cc1` [Example 288], the “Residual activity % of the NCBE at 10 μM” value is listed as 63.1%.
On to `N#CNS(=O)(=O)c1ccccc1-c1ccc(CN(Cc2cccc3ccccc23)C(=O)CCc2cccs2)cc1` [Example 289], for which the “Residual activity % of the NCBE at 10 μM” value turned out to be 39.2%.
Next, `N#CNS(=O)(=O)c1ccccc1-c1ccc(CN(Cc2cccc(Cl)c2)C(=O)CCc2cccs2)cc1` [Example 290]: 45.8%; `N#CNS(=O)(=O)c1ccccc1-c1ccc(CN(Cc2ccccc2Cl)C(=O)Cc2ccccc2Cl)cc1` [Example 291]: 23.7%.
Next, `N#CNS(=O)(=O)c1ccccc1-c1ccc(CN(Cc2cccc3ccccc23)C(=O)Cc2ccccc2Cl)cc1` [Example 293]: 55.1%; `N#CNS(=O)(=O)c1ccccc1-c1ccc(CN(CCc2ccc(S(N)(=O)=O)cc2)C(=O)Cc2ccccc2Cl)cc1` [Example 294]: 82.7%.
Regarding `N#CNS(=O)(=O)c1ccccc1-c1ccc(CN(Cc2cccs2)C(=O)NCc2ccccc2)cc1` [Example 295], the “Residual activity % of the NCBE at 10 μM” value is reported as 8.0%.
`N#CNS(=O)(=O)c1ccccc1-c1ccc(CN(Cc2cccs2)C(=O)NC2CCCCC2)cc1` [Example 296]: the “Residual activity % of the NCBE at 10 μM” value came to 31.7%.
Take `N#CNS(=O)(=O)c1ccccc1-c1ccc(CN(Cc2ccccc2)C(=O)Nc2c(F)cccc2F)cc1` [Example 297]: the “Residual activity % of the NCBE at 10 μM” value was determined as 80.4%.
For the compound `CC(C)NC(=O)N(Cc1ccccc1)Cc1ccc(-c2ccccc2S(=O)(=O)NC#N)cc1` [Example 298], the “Residual activity % of the NCBE at 10 μM” value worked out at 74.7%.
With `N#CNS(=O)(=O)c1ccccc1-c1ccc(CN(Cc2ccccc2)C(=O)NCc2ccccc2)cc1` [Example 299], the “Residual activity % of the NCBE at 10 μM” value is on record as 48.6%.
Next, `N#CNS(=O)(=O)c1ccccc1-c1ccc(CN(Cc2ccccc2)C(=O)NC2CCCCC2)cc1` [Example 300]: 29.4%.
As to `COc1cccc(CN(Cc2ccc(-c3ccccc3S(=O)(=O)NC#N)cc2)C(=O)Nc2c(F)cccc2F)c1` [Example 301], the “Residual activity % of the NCBE at 10 μM” value is listed as 87.9%.
Consider `COc1cccc(CN(Cc2ccc(-c3ccccc3S(=O)(=O)NC#N)cc2)C(=O)NC(C)C)c1` [Example 302], for which the “Residual activity % of the NCBE at 10 μM” value was determined as 80.4%.
For `COc1cccc(CN(Cc2ccc(-c3ccccc3S(=O)(=O)NC#N)cc2)C(=O)NCc2ccccc2)c1` [Example 303], the “Residual activity % of the NCBE at 10 μM” value was found to be 65.8%.
Regarding `COc1cccc(CN(Cc2ccc(-c3ccccc3S(=O)(=O)NC#N)cc2)C(=O)NC2CCCCC2)c1` [Example 304], the “Residual activity % of the NCBE at 10 μM” value is 56.0%.
Turning to `N#CNS(=O)(=O)c1ccccc1-c1ccc(CN(Cc2cccc(Cl)c2)C(=O)Nc2c(F)cccc2F)cc1` [Example 305], the “Residual activity % of the NCBE at 10 μM” value is reported as 84.9%.
As to `CC(C)NC(=O)N(Cc1ccc(-c2ccccc2S(=O)(=O)NC#N)cc1)Cc1cccc(Cl)c1` [Example 306], the “Residual activity % of the NCBE at 10 μM” value was 90.2%.
Regarding `N#CNS(=O)(=O)c1ccccc1-c1ccc(CN(Cc2cccc(Cl)c2)C(=O)NCc2ccccc2)cc1` [Example 307], the “Residual activity % of the NCBE at 10 μM” value turned out to be 55.8%.
With `N#CNS(=O)(=O)c1ccccc1-c1ccc(CN(Cc2cccc(Cl)c2)C(=O)NC2CCCCC2)cc1` [Example 308], the “Residual activity % of the NCBE at 10 μM” value is 32.1%.
For the compound `N#CNS(=O)(=O)c1ccccc1-c1ccc(CN(Cc2cccc(Cl)c2Cl)C(=O)Cc2cccs2)cc1` [Example 309], the “Residual activity % of the NCBE at 10 μM” value amounted to 88.9%.
As for `N#CNS(=O)(=O)c1ccccc1-c1ccc(CN(Cc2ccc3ccccc3c2)C(=O)Cc2cccs2)cc1` [Example 310], the “Residual activity % of the NCBE at 10 μM” value was 47.7%.
Consider `Cc1cccc(CN(Cc2ccc(-c3ccccc3S(=O)(=O)NC#N)cc2)C(=O)Cc2cccs2)c1` [Example 311], for which the “Residual activity % of the NCBE at 10 μM” value turned out to be 10.4%.
Turning to `Cc1ccccc1CN(Cc1ccc(-c2ccccc2S(=O)(=O)NC#N)cc1)C(=O)Cc1cccs1` [Example 312], the “Residual activity % of the NCBE at 10 μM” value turned out to be 12.5%.
To `CC(C)=CCCC(C)=CCN(Cc1ccc(-c2ccccc2S(=O)(=O)NC#N)cc1)C(=O)Cc1cccs1` [Example 313] belongs 17.2%; to `N#CNS(=O)(=O)c1ccccc1-c1ccc(CN(C(=O)Cc2cccs2)C2CCc3ccccc32)cc1` (stereo not shown) [Example 314], 14.4%; to `N#CNS(=O)(=O)c1ccccc1-c1ccc(CN(C(=O)Cc2cccs2)C2CCCc3ccccc32)cc1` (stereo not shown) [Example 315], 23.5%.
As for `N#CNS(=O)(=O)c1ccccc1-c1ccc(CN(Cc2ccccc2F)C(=O)Cc2cccs2)cc1` [Example 316], the “Residual activity % of the NCBE at 10 μM” value worked out at 14.4%.
For `N#CNS(=O)(=O)c1ccccc1-c1ccc(CN(Cc2cccc(-c3ccccc3)c2)C(=O)Cc2cccs2)cc1` [Example 317], the “Residual activity % of the NCBE at 10 μM” value is 14.5%.
Regarding `N#CNS(=O)(=O)c1ccccc1-c1ccc(CN(CC2CCCO2)C(=O)Cc2cccs2)cc1` (stereo not shown) [Example 318], the “Residual activity % of the NCBE at 10 μM” value is given as 16.4%.
With `COCCC(=O)N(Cc1ccc(-c2ccccc2S(=O)(=O)NC#N)cc1)Cc1cccc(Cl)c1Cl` [Example 319], the “Residual activity % of the NCBE at 10 μM” value turned out to be 38.0%.
In the case of `COCCC(=O)N(Cc1ccc(-c2ccccc2S(=O)(=O)NC#N)cc1)Cc1ccc2ccccc2c1` [Example 320], the “Residual activity % of the NCBE at 10 μM” value was found to be 38.8%.
As for `COCCC(=O)N(Cc1ccc(-c2ccccc2S(=O)(=O)NC#N)cc1)Cc1ccccc1C` [Example 322], the “Residual activity % of the NCBE at 10 μM” value was 66.3%.
On to `COCCC(=O)N(CC=C(C)CCC=C(C)C)Cc1ccc(-c2ccccc2S(=O)(=O)NC#N)cc1` [Example 323], for which the “Residual activity % of the NCBE at 10 μM” value is 23.6%.
With `COCCC(=O)N(Cc1ccc(-c2ccccc2S(=O)(=O)NC#N)cc1)C1CCc2ccccc21` (stereo not shown) [Example 324], the “Residual activity % of the NCBE at 10 μM” value was determined as 60.5%.
In the case of `COCCC(=O)N(Cc1ccc(-c2ccccc2S(=O)(=O)NC#N)cc1)C1CCCc2ccccc21` (stereo not shown) [Example 325], the “Residual activity % of the NCBE at 10 μM” value is on record as 33.8%.
Turning to `COCCC(=O)N(Cc1ccc(-c2ccccc2S(=O)(=O)NC#N)cc1)Cc1ccccc1F` [Example 326], the “Residual activity % of the NCBE at 10 μM” value turned out to be 25.6%.
As to `COCCC(=O)N(Cc1ccc(-c2ccccc2S(=O)(=O)NC#N)cc1)Cc1cccc(-c2ccccc2)c1` [Example 327], the “Residual activity % of the NCBE at 10 μM” value came out at 17.4%.
Take `COCCC(=O)N(Cc1ccc(-c2ccccc2S(=O)(=O)NC#N)cc1)CC1CCCO1` (stereo not shown) [Example 328]: the “Residual activity % of the NCBE at 10 μM” value is on record as 87.0%.
For the compound `COc1ccccc1C(=O)N(Cc1ccc(-c2ccccc2S(=O)(=O)NC#N)cc1)Cc1cccc(Cl)c1Cl` [Example 329], the “Residual activity % of the NCBE at 10 μM” value stood at 25.7%.
With `COc1ccccc1C(=O)N(Cc1ccc(-c2ccccc2S(=O)(=O)NC#N)cc1)Cc1ccc2ccccc2c1` [Example 330], the “Residual activity % of the NCBE at 10 μM” value came to 14.4%.
Turning to `COc1ccccc1C(=O)N(Cc1ccc(-c2ccccc2S(=O)(=O)NC#N)cc1)Cc1cccc(C)c1` [Example 331], the “Residual activity % of the NCBE at 10 μM” value came out at 37.6%.
To `COc1ccccc1C(=O)N(Cc1ccc(-c2ccccc2S(=O)(=O)NC#N)cc1)Cc1ccccc1C` [Example 332] belongs 31.7%.
To `COc1ccccc1C(=O)N(CC=C(C)CCC=C(C)C)Cc1ccc(-c2ccccc2S(=O)(=O)NC#N)cc1` [Example 333] belongs 22.3%; to `COc1ccccc1C(=O)N(Cc1ccc(-c2ccccc2S(=O)(=O)NC#N)cc1)C1CCCc2ccccc21` (stereo not shown) [Example 335], 79.6%; to `COc1ccccc1C(=O)N(Cc1ccc(-c2ccccc2S(=O)(=O)NC#N)cc1)Cc1ccccc1F` [Example 336], 58.1%.
As for `COc1ccccc1C(=O)N(Cc1ccc(-c2ccccc2S(=O)(=O)NC#N)cc1)Cc1cccc(-c2ccccc2)c1` [Example 337], the “Residual activity % of the NCBE at 10 μM” value is given as 51.2%.
To `COc1ccccc1C(=O)N(Cc1ccc(-c2ccccc2S(=O)(=O)NC#N)cc1)CC1CCCO1` (stereo not shown) [Example 338] belongs 50.7%; to `N#CNS(=O)(=O)c1ccccc1-c1ccc(CN(Cc2cccc(Cl)c2Cl)C(=O)CCOc2ccccc2)cc1` [Example 339], 46.8%.
For `N#CNS(=O)(=O)c1ccccc1-c1ccc(CN(Cc2ccc3ccccc3c2)C(=O)CCOc2ccccc2)cc1` [Example 340], the “Residual activity % of the NCBE at 10 μM” value was 37.2%.
In the case of `Cc1cccc(CN(Cc2ccc(-c3ccccc3S(=O)(=O)NC#N)cc2)C(=O)CCOc2ccccc2)c1` [Example 341], the “Residual activity % of the NCBE at 10 μM” value came to 44.6%.
Take `Cc1ccccc1CN(Cc1ccc(-c2ccccc2S(=O)(=O)NC#N)cc1)C(=O)CCOc1ccccc1` [Example 342]: the “Residual activity % of the NCBE at 10 μM” value is recorded as 85.3%.
Next, `CC(C)=CCCC(C)=CCN(Cc1ccc(-c2ccccc2S(=O)(=O)NC#N)cc1)C(=O)CCOc1ccccc1` [Example 343]: 48.1%; `N#CNS(=O)(=O)c1ccccc1-c1ccc(CN(C(=O)CCOc2ccccc2)C2CCc3ccccc32)cc1` (stereo not shown) [Example 344]: 52.2%; `N#CNS(=O)(=O)c1ccccc1-c1ccc(CN(C(=O)CCOc2ccccc2)C2CCCc3ccccc32)cc1` (stereo not shown) [Example 345]: 39.8%.
Regarding `N#CNS(=O)(=O)c1ccccc1-c1ccc(CN(Cc2ccccc2F)C(=O)CCOc2ccccc2)cc1` [Example 346], the “Residual activity % of the NCBE at 10 μM” value worked out at 36.0%.
Take `N#CNS(=O)(=O)c1ccccc1-c1ccc(CN(Cc2cccc(-c3ccccc3)c2)C(=O)CCOc2ccccc2)cc1` [Example 347]: the “Residual activity % of the NCBE at 10 μM” value is on record as 19.3%.
